Consider one compound from the NIST ThermoML archive (doi:10.1016/j.fluid.2013.06.038).

± gives the expanded uncertainty stated by the source.

The conditions of this data set: Crystal; visual observation.

Regarding `CC=CC(=O)O` [2-butenoic acid], the Normal melting temperature is 71.7 ± 1.1 °C.
